Results: ChEMBL document CHEMBL1140603, “Simple criterion for selection of flavonoid compounds with anti-HIV activity” (Bioorg Med Chem Lett, 2007)

tested on: Human immunodeficiency virus 1; experiment: Inhibition of HIV1 replication; assay type: functional, organism-based

| EC50 [µM] | SMILES |
| --- | --- |
| < 100 | O=c1c(O)c(-c2cc(O)c(O)c(O)c2)oc2cc(O)ccc12 [ROBINETIN] |
| < 100 | O=c1c(O)c(-c2ccc(O)c(O)c2)oc2cc(O)c(O)c(O)c12 [QUERCETAGETIN] |
| ≥ 100 | COc1ccc(-c2cc(=O)c3c(OC)c(OC)c(OC)c(OC)c3o2)cc1 [TANGERETIN] |
| < 100 | O=c1c(O)c(-c2cc(O)c(O)c(O)c2)oc2cc(O)cc(O)c12 [MYRICETIN] |
| < 100 | COc1cc(O)c2c(=O)c(O)c(-c3ccc(O)c(O)c3)oc2c1 [RHAMNETIN] |
| ≥ 100 | COc1cc(O)c2c(=O)cc(-c3ccc(O)cc3)oc2c1 [GENKWANIN] |
| < 100 | O=c1c(O)c(-c2ccc(O)cc2)oc2cc(O)cc(O)c12 [KAEMPFEROL] |
| < 100 | O=c1c(O)c(-c2ccc(O)c(O)c2)oc2cc(O)ccc12 [FISETIN] |
| < 100 | O=c1c(O)c(-c2ccc(O)cc2O)oc2cc(O)cc(O)c12 [MORIN] |
| ≥ 100 | COc1ccc(-c2cc(=O)c3c(OC)c(OC)c(OC)cc3o2)cc1OC [SINENSETIN] |

Second part, the compound before the results:

| SMILES | EC50 [µM] |
| --- | --- |
| COc1ccc(-c2cc(=O)c3c(O)cc(O)cc3o2)cc1 [ACACETIN] | ≥ 100 |
| O=c1cc(-c2ccc(O)cc2)oc2cc(O)cc(O)c12 [APIGENIN] | ≥ 100 |
| O=c1cc(-c2ccccc2)oc2cc(O)ccc12 [7-HYDROXYFLAVONE] | ≥ 100 |
| O=c1cc(-c2ccccc2)oc2cc(O)cc(O)c12 [CHRYSIN] | ≥ 100 |
| O=c1cc(-c2ccc(O)c(O)c2)oc2ccccc12 | ≥ 100 |
| O=c1c(O)c(-c2ccc(O)c(O)c2)oc2cc(O)cc(O)c12 [QUERCETIN] | < 100 |
| COc1ccc(-c2cc(=O)c3c(OC)c(OC)ccc3o2)cc1OC | ≥ 100 |
| COc1c(O)cc2oc(-c3ccc(O)c(O)c3)cc(=O)c2c1O [EUPAFOLIN] | < 100 |
| COc1ccc(-c2cc(=O)c3c(OC)c(OC)c(OC)cc3o2)cc1 | ≥ 100 |
| COc1ccc(-c2oc3cc(O)ccc3c(=O)c2OC)cc1 | ≥ 100 |
